Results on twelve compounds are retold here after PubChem BioAssay (NCI).

SMILES strings stand for the structures. Several values for one entry are separate records, joined by “and”; a condition that tells them apart may be missing. Identical values can stand only once.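 Cells were grown in 96-well plates and exposed to each compound for 48 hours at five concentrations; endpoints were interpolated linearly between bracketing concentrations, or set to the highest concentration if not reached. Abbreviation: GI50, concentration required for 50% inhibition of growth. TGI is the concentration that stops growth completely.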 Where a SMILES comes first, the peptide text is derived from it. The star is where a group is joined. Cbz = O=C(OCc1ccccc1)* Some results are limits rather than exact numbers.

Some test systems named below: HOP-62 NSCLC; MCF7 breast; HCC-2998 colon; MOLT-4 leukemia; 786-0 renal; SF-268 CNS; NCI-H226 lung; IGROV1 ovarian; RXF 393 renal; HL-60(TB) leukemia; UACC-62 melanoma; CCRF-CEM leukemia.
Common to all, as to experiment: NCI tumour cell line growth inhibition, 48 h

As to `Cc1ccc(S(=O)(=O)C2=C(C(C)C)N=NC2(C)C)cc1`, the TGI in the assay with HOP-62 NSCLC, with MCF7 breast, in the assay with HCC-2998 colon, with MOLT-4 leukemia, with 786-0 renal and in the assay on SF-268 CNS was greater than 100 µM each time. The TGI in the assay on NCI-H226 lung, with IGROV1 ovarian, in the assay on RXF 393 renal and with HL-60(TB) leukemia was greater than 100 µM in each case.
With `C=C1CCCCCCCCC/C=C/1SCCCSC`, the TGI with HOP-62 NSCLC, in the assay with MCF7 breast, in the assay on HCC-2998 colon, in the assay on MOLT-4 leukemia, with 786-0 renal and with UACC-62 melanoma was greater than 100 µM in each case. In addition, the TGI with SF-268 CNS, in the assay with NCI-H226 lung, in the assay with IGROV1 ovarian, with RXF 393 renal and in the assay on HL-60(TB) leukemia was greater than 100 µM in each case.
In the case of `O=Cc1ccc(-c2ccc(-c3ccc(CO)s3)o2)s1`, the TGI in the assay with HOP-62 NSCLC is greater than 84.3 µM; with MCF7 breast, greater than 100 µM; in the assay with HCC-2998 colon, 18.3 µM; with MOLT-4 leukemia, greater than 39 µM; in the assay with 786-0 renal, greater than 48.9 µM; in the assay on CCRF-CEM leukemia it was greater than 23.7 µM. Besides, the TGI in the assay with UACC-62 melanoma is 6.03 µM; with SF-268 CNS it was greater than 76.1 µM; in the assay with NCI-H226 lung it was 0.291 µM; in the assay on RXF 393 renal, 47.6 µM; in the assay on HL-60(TB) leukemia it was greater than 22.3 µM.
Regarding `COc1cc2nc(-c3cccs3)nc(Cl)c2cc1OC`, the TGI in the assay with HOP-62 NSCLC is greater than 100 µM; in the assay with MCF7 breast, 76 µM; with 786-0 renal, greater than 100 µM; in the assay with UACC-62 melanoma, greater than 100 µM; with SF-268 CNS, greater than 100 µM; in the assay on NCI-H226 lung, greater than 100 µM. For the same compound, the TGI in the assay with IGROV1 ovarian and with HL-60(TB) leukemia was greater than 100 µM each time.
For `CC(=O)c1ccc2c(c1)C(=O)c1sc(C(C)=O)cc1C2=O`, the GI50 is 2.35 µM in the assay on HOP-62 NSCLC; 1.71 µM in the assay on HCC-2998 colon; 0.0664 µM in the assay on MOLT-4 leukemia; 0.182 µM with CCRF-CEM leukemia; 0.819 µM in the assay on SF-268 CNS; 1.43 µM in the assay on NCI-H226 lung. For the same compound, in the assay on IGROV1 ovarian, the GI50 was 0.43 µM. Also, the TGI in the assay on HOP-62 NSCLC is 8.16 µM and 7.25 µM; in the assay with MCF7 breast, 4.7 µM; in the assay with 786-0 renal, 50 µM; in the assay with SF-268 CNS it was 3.85 µM and 3.41 µM; in the assay with NCI-H226 lung, 2.2 µM and 4.03 µM; with IGROV1 ovarian, 2.55 µM and 1.59 µM. Also, the TGI is 4.7 µM in the assay on RXF 393 renal and 50 µM in the assay on HL-60(TB) leukemia.
With `COC(=O)N[C@H](C(=O)NC(OCc1ccccc1)C1COC(C)(C)O1)C(C)O[Si](C)(C)C(C)(C)C` (some centres undefined), the TGI in the assay with HOP-62 NSCLC, in the assay with MCF7 breast, with HCC-2998 colon, in the assay with MOLT-4 leukemia, with 786-0 renal and with CCRF-CEM leukemia was greater than 100 µM each time. For the same compound, the TGI in the assay with SF-268 CNS, with IGROV1 ovarian, in the assay with RXF 393 renal and in the assay on HL-60(TB) leukemia was greater than 100 µM each time.
Turning to `Cc1[nH]n(-c2nc(O)c(-c3ccccc3)c(=O)[nH]2)c(=O)c1CCO`, the TGI with MCF7 breast, in the assay on MOLT-4 leukemia, in the assay on 786-0 renal, in the assay with CCRF-CEM leukemia, with UACC-62 melanoma and in the assay with SF-268 CNS was greater than 100 µM throughout. Also, the TGI in the assay on NCI-H226 lung, in the assay on IGROV1 ovarian, in the assay on RXF 393 renal and in the assay with HL-60(TB) leukemia was greater than 100 µM in each case.
For `CC(NC(=O)Cc1ccccc1)NC(=O)C(C)C(=O)NCc1ccccc1` (centres undefined), the TGI in the assay with MCF7 breast, in the assay with MOLT-4 leukemia, in the assay on 786-0 renal, in the assay with CCRF-CEM leukemia, in the assay on UACC-62 melanoma and in the assay on SF-268 CNS was greater than 100 µM throughout. For the same compound, the TGI was 77.8 µM in the assay on NCI-H226 lung, greater than 100 µM in the assay with IGROV1 ovarian, greater than 100 µM with RXF 393 renal and greater than 100 µM in the assay with HL-60(TB) leukemia.
Regarding `CCOC(=O)CCC(NC(=O)OCc1ccccc1)C(=O)NC(CCC(=O)OCC)C(=O)OCC` (centres undefined) (Cbz-Glu(OEt)-Glu(OEt)-OEt; configuration not given here), the TGI with HOP-62 NSCLC, with MCF7 breast, in the assay on HCC-2998 colon, with MOLT-4 leukemia, with 786-0 renal and with CCRF-CEM leukemia was greater than 100 µM each time. Further, the TGI in the assay on UACC-62 melanoma, in the assay with SF-268 CNS, in the assay with NCI-H226 lung, in the assay with IGROV1 ovarian and in the assay with RXF 393 renal was greater than 100 µM in each case.
As to `CC1CC(Nc2ccc(Br)cc2)N(C(=O)c2ccc(Br)cc2)O1` (centres undefined), the TGI in the assay on HOP-62 NSCLC, with MCF7 breast, with HCC-2998 colon, in the assay with MOLT-4 leukemia, with 786-0 renal and with CCRF-CEM leukemia was greater than 10 µM in each case. Further, the TGI in the assay with SF-268 CNS, in the assay on NCI-H226 lung, with IGROV1 ovarian, with RXF 393 renal and with HL-60(TB) leukemia was greater than 10 µM throughout.
Take `COc1cccc(CC(=O)N2CCN(CCCc3ccccc3)CC2)c1`: the TGI with HOP-62 NSCLC, in the assay on MCF7 breast, in the assay with HCC-2998 colon, in the assay on MOLT-4 leukemia, in the assay with 786-0 renal and with CCRF-CEM leukemia was greater than 100 µM throughout. Further, the TGI in the assay on UACC-62 melanoma, in the assay on SF-268 CNS, in the assay with NCI-H226 lung, in the assay with IGROV1 ovarian and in the assay on HL-60(TB) leukemia was greater than 100 µM each time.
Take `CN1CC=C(c2c(N)nc(N)[nH]c2=O)CC1`: the TGI with HOP-62 NSCLC, in the assay on MCF7 breast, in the assay on MOLT-4 leukemia, in the assay on 786-0 renal, in the assay with CCRF-CEM leukemia and in the assay with UACC-62 melanoma was greater than 100 µM each time. The TGI in the assay on SF-268 CNS, in the assay on NCI-H226 lung, in the assay on IGROV1 ovarian, with RXF 393 renal and in the assay with HL-60(TB) leukemia was greater than 100 µM each time.
